Values of other authors in US8759216B2, “Compositions and methods for polishing silicon nitride materials” (Cabot Microelectronics Corporation, priority 2006, dated 2014).
Where two headings read alike, the source gives them in different places.

SMILES | pKa (first listed pKa value) | pKa (second listed pKa value)
O=C(O)CCCC(=O)O [glutaric] | 4.34 | 5.41
OP(O)O [phosphorous, phosphorous acid] | 2.00 | 6.59
O=C(O)c1ccccc1C(=O)O [phthalic, phthalic acid] | 2.89 | 5.51
